The text below walks through data of patent US20210161902A1, “EPICHAPEROME INHIBITOR THERAPY FOR TRAUMATIC BRAIN INJURY AND SEQUELAE THEREOF” (Samus Therapeutics, Inc, priority 2017, published 2021).

This assay deals with Hsp90 such as brain Hsp90. In words: EC50 for binding to Hsp90 such as brain Hsp90. Conditions: concentration yielding half-maximal binding to Hsp90 such as brain Hsp90, or halving binding in a competition assay. The text has this: Brain uptake may be indicative of binding of the epichaperome inhibitor to Hsp90 and preferably to brain Hsp90. Such binding assays may be carried out as described in published PCT application WO2008/005937.
BBB-permeable epichaperome inhibitors to be used in the methods provided herein may be further characterized by their EC50 for binding to Hsp90 such as brain Hsp90. (EC50, in this context, refers to the concentration of the inhibitor that yields half-maximal binding of the inhibitor to Hsp90 such as brain Hsp90, or alternatively if the measurement is performed in a competition assay it is the concentration of inhibitor at which the binding to Hsp90 is reduced by half.) Certain inhibitors may have an EC50 of 100 nM or less, including about 90 nM, about 80 nM, about 85 nM, about 70 nM, about 60 nM, about 50 nM, about 40 nM, about 30 nM, about 20 nM, about 10 nM, about 9 nM, about 8 nM, about 7 nM, about 6 nM, about 5 nM, about 4 nM, about 3 nM, about 2 nM, or about 1 nM. The EC50 might range from 0.1 to 10 nM, from 0.1 to 9 nM, from 0.1 to 8 nM, from 0.1 to 7 nM, from 0.1 to 6 nM, or from 0.1 to 5 nM. The EC50 might range from 0.1 to 20 nM, from 0.1 to 18 nM, from 0.1 to 15 nM, from 0.1 to 12 nM, or from 0.1 to 10 nM. In some instances, certain inhibitors have an EC50 of about 5-7 nM. […] In other instances, certain inhibitors have an EC50 of about 80-90 nM.

As for `CC(C)(C)CNCCn1c(Sc2cc3c(cc2I)OCO3)nc2c(N)ncnc21` [Compound 1], a half-maximal response (EC50) required 6.9 nM.
